According to patent US10821093B2, “Antibacterial microelement chelates and the use thereof in animal feeds” (priority 2012, dated 2020):

Experiments:
Salmonella enterica = assay: MIC, liquid culture dilution (single chelates and cross-dilution combinations); assay type: cell-based, Salmonella enterica subp. Enterica serovar enteritidis
Streptococcus agalactiae = assay: MIC, liquid culture dilution; assay type: cell-based
Escherichia coli = assay: MIC, liquid culture dilution (single chelates and cross-dilution combinations); assay type: cell-based
Staphylococcus aureus = assay: MIC, liquid culture dilution; assay type: cell-based
Clostridium perfringens = assay type: cell-based
[1] = tested on: Brachyspira hyodysenteriae; assay: MIC (single chelates and combinations)

Row | Molecule | Minimal inhibitory concentration (MIC) (Salmonella enterica) [ppm] | Minimal inhibitory concentration (MIC) (Streptococcus agalactiae) [ppm] | Minimal inhibitory concentration (MIC) (Escherichia coli) [ppm] | Minimal inhibitory concentration (MIC) (Staphylococcus aureus) [ppm] | Minimal inhibitory concentration (MIC) (Clostridium perfringens) [ppm] | Minimal inhibitory concentration (MIC) [1] [ppm]
1 | NC(=O)CC(N)C(=O)[O][Cu]([NH3+])([NH3+])[O]C(=O)C(N)CC(N)=O (stereo not drawn) [Cu diammine bis-asparaginate] | 2050 | 16 | 1025 | 1025 | 32 | 
2 | N.N.NC(CCC(=O)O)C(=O)[O-].NC(CCC(=O)O)C(=O)[O-].[Cu+2] (stereo not drawn) [Cu diammine bis-glutamate] |  | 24 |  | 387 | 97 | 
3 | O=C(O)CN1CCN(CC(=O)O)CC(=O)[O][Cu][O]C(=O)C1 [Cu ethylenediamine tetraacetic acid] |  |  |  |  | 160 | 320
4 | O.O.O=C([O-])CN(CCN(CC(=O)[O-])CC(=O)O)CC(=O)O.[Cu+2] [Cu(H2O)2-ethylenediamine tetraacetic acid] |  |  |  |  | 60 | 100
5 | NC(=O)C[C@H](N)C(=O)[O-].NC(=O)C[C@H](N)C(=O)[O-].[Zn+2] [Zn bis-asparaginate] |  | 51 |  | 26 | 412 | 
6 | O=C([O-])c1ccccc1.O=C([O-])c1ccccc1.[Zn+2] [Zn bis-benzoate] | >4000 |  | >4000 |  | >4000 | 
7 | NC(Cc1cnc[nH]1)C(=O)[O-].NC(Cc1cnc[nH]1)C(=O)[O-].[Zn+2] (stereo not drawn) [Zn bis-histidinate] | >4000 | 4 | >4000 | >4000 | 650 | 
8 | O=C(O)c1ccccc1[O-].O=C(O)c1ccccc1[O-].[Zn+2] [Zn bis-salycilate] | >4000 |  | >4000 |  | >4000 | 
9 | N.N.NC(CC(=O)O)C(=O)[O-].NC(CC(=O)O)C(=O)[O-].[Zn+2] (stereo not drawn) [Zn diammine bis-aspartate] | 247 |  | 123 |  |  | 
10 | N.N.NC(CCC(=O)O)C(=O)[O-].NC(CCC(=O)O)C(=O)[O-].[Zn+2] (stereo not drawn) [Zn diammine bis-glutamate] |  | 21 |  | 42 | 334 | 
11 | N[C@@H](CC(=O)[O-])C(=O)[O-].[Zn+2] [Zn mono-aspartate] | 74 |  | 74 |  |  | 
12 | NC(CCC(=O)[O-])C(=O)[O-].[Zn+2] (stereo not drawn) [Zn mono-glutamate] |  | 18 | 70 | 36 | 475 | 
13 | O=C([O-])CN(CC(=O)[O-])CC(=O)O.[Zn+2] [Zn nitrolotriacetate] | 40 |  | 40 |  |  | 
14 | CCCC(=O)[O-].CCCC(=O)[O-].O.[Zn+2] [Zn(H2O) bis-butyrate] | 110 |  | 110 |  |  | 
15 | CCC(=O)[O-].CCC(=O)[O-].O.[Zn+2] [Zn(H2O) bis-propionate] | 160 |  | 160 |  |  | 
16 | CCCCC(=O)[O-].CCCCC(=O)[O-].O.[Zn+2] [Zn(H2O) bis-valerianate] | 120 |  | 120 |  |  | 
17 | Cu diammine asparaginate | 620 | 20 | 620 | 620 | 38 | 
18 | Cu diammine glutamate |  | 11 | 688 |  | 43 | 

Row | Molecule | Minimal inhibitory concentration (MIC) (Salmonella enterica) [ppm] | Minimal inhibitory concentration (MIC) (Streptococcus agalactiae) [ppm] | Minimal inhibitory concentration (MIC) (Escherichia coli) [ppm] | Minimal inhibitory concentration (MIC) (Staphylococcus aureus) [ppm] | Minimal inhibitory concentration (MIC) (Clostridium perfringens) [ppm] | Minimal inhibitory concentration (MIC) [1] [ppm]
19 | Cu diammine tri-asparaginate | >4000 | 43 | 1400 | 1400 | 44 | 
20 | Cu diammine tri-glutamate |  | 8 |  | 487 | 30 | 
21 | Zn asparaginate |  | 37 |  | 18 | 297 | 
22 | Zn diammine asparaginate |  | 23 |  | 46 | 369 | 
23 | Zn diammine aspartate | 184 |  | 92 |  |  | 
24 | Zn diammine bis-asparaginate |  | 15 |  | 62 | 494 | 
25 | Zn diammine bis-histidinate | >4000 | 12 | >4000 | >4000 | 1950 | 
26 | Zn diammine citrate | 98 | 49 | 48 | 49 |  | 
27 | Zn diammine glutamate |  | 15 | 167 | 61 | 245 | 
28 | Zn diammine tri-asparaginate |  | 14 |  | 114 | 456 | 
29 | Zn diammine tri-aspartate | 228 |  | 114 |  |  | 
30 | Zn tri-asparaginate |  | 19 |  | 18 | 450 | 
31 | Zn triammine tri-glutamate |  | 15 |  | 58 | 469 | 
32 | Zn(H2O) bis-aspartate |  |  | 103 |  |  | 
33 | Zn(H2O) bis-glutamate |  | 10 |  | 21 | 331 | 
34 | Zn(H2O) tri-aspartate | 70 |  | 75 |  |  | 
35 | Zn(H2O) tri-glutamate |  | 17 | 70 | 35 | 281 | 
36 | Zn(NH4)4(glycine)2 [Zn tetraammine bis-glycinate] | 140 |  | 140 |  |  | 
